Test system: rat kidney slices
Assay: In vitro uptake of AAI in kidney slices
Format: in vitro ADME
Conditions: AAI 1 μM, JBP485 500 μM
Description: Rat kidneys were cut into slices with a ZQP-86 tissue slicer (Zhixin Co. Ltd., China), as previously described ([Wang et al., 2014]). After preincubation for 3 min at 37°C, the kidney slices were transferred to 24-well culture plates containing 1 mL of fresh oxygenated buffer with AAI (1 μM) and/or JBP485 (500 μM) and further incubated at 37 °C with gentle shaking. After incubation for 5, 15, and 30 min, the slices were washed with ice-cold Hanks’ balanced salt solution (pH 7.5). The amount of AAI accumulated in the homogenized kidneys was determined by LC–MS/MS.
The concentrations of the test compounds in plasma, urine, and cell lysates were determined using an Agilent HP1200 liquid chromatography system (Agilent Technology Inc., SC, CA, United States) and an API 3200 triple-quadrupole mass spectrometer (Applied Biosystems, SC, CA, United States). After protein precipitation using acetonitrile, the analyte was separated on a Hypersil BDS C18 column. The mobile phase consisted of acetonitrile and water containing 0.1% (v/v) formic acid (80:20, v/v). The flow rate was 0.4 mL/min. The mass spectrometer was equipped with an electrospray ionization (ESI) source. Data were acquired in positive ion mode and dynamic multiple reaction monitoring (MRM) mode. […]

Structure (SMILES): O=C1N[C@@H](CO)C(=O)N2C[C@H](O)C[C@@H]12 (relative stereo) [JBP485, cyclo-trans-4-L-hydroxyprolyl-L-serine]
- AAI uptake in kidney slices: inhibited

— publication PMC12074917, “Molecular pharmacokinetic mechanism of JBP485 against aristolochic acid I (AAI) -induced nephrotoxicity” (Frontiers in Pharmacology, 2025)
